In US12624354B2, “Methods and compositions for prime editing nucleotide sequences” (The Broad Institute, Inc., priority 2019, dated 2026):

Legend:
[1] = system: 5′-Cy5-labeled dsDNA substrates; assay: In vitro TPRT (prime editing) primer extension assay, denaturing urea PAGE; assay type: biochemical; conditions: non-nicked substrate, standard gRNA (gRNA_0, lane 3)
Protocol: All reactions are with M-MLV RT.
Then, the fluorescently labeled DNA substrate was added along with dNTPs and the RT enzyme. After 1 hour of incubation at 37° C., the reaction products were analyzed by denaturing urea-polyacrylamide gel electrophoresis (PAGE).
However, the DNA substrates are not pre-nicked in this set of experiments. […] The reaction products were analyzed by denaturing urea-polyacrylamide gel electrophoresis (PAGE).
Reactions were incubated at 37° C. for 1 hour, then analyzed by denaturing urea PAGE and visualized for Cy5 fluorescence.
Reactions were allowed to proceed at 37° C. for 1 hour prior to separation by denaturing urea PAGE and visualization by Cy5 fluorescence.

[2] = system: different target sites in various cell lines; assay: Efficiency of prime editors with truncated RT; assay type: cell-based
Excerpt: FIG. 75 provides a bar graph comparing the efficiency (i.e., “% of total sequencing reads with the specified edit or indels”) of PE2, PE2-trunc, PE3, and PE3-trunc over different target sites in various cell lines.
See FIG. 75, which provides a bar graph comparing the efficiency (i.e., “% of total sequencing reads with the specified edit or indels”) of PE2, PE2-trunc, PE3, and PE3-trunc over different target sites in various cell lines.

HEK cells = assay: Npu intein-split prime editors, plasmid transfection, high-throughput sequencing; assay type: cell-based; conditions: HEK cells transfected with plasmids
Excerpt: This Example is focused on a PE fusion protein comprising the canonical SpCas9 (SEQ ID NO: 18). The split sites for other Cas9 proteins may be the corresponding same site, or may need to be optimized for each different Cas9 protein. In the instant Example, the prime editor was split between residues 1023 and 1024 of SpCas9 (SEQ ID NO: 18). This is referred to as the “1023/1024” split site.
Prime editors (PEs) exceed the AAV packaging capacity.
It was therefore determined whether mutation from the Cas9-native “SEQ” towards the Npu intein “CFN” sequence altered efficiency of prime editing.
Although associated, unspliced editors may be active, perturbations of the sterics of the prime editor resulting from incomplete splicing during initiation steps may affect editing outcomes.

Cas9 nickase: Cas9 nickase (SpyCas9 H840A mutant)
cleavage of the DNA strand [1]: efficiently cleaves the DNA strand

PE2-trunc: Cas9 (H840A) fused to a truncated M-MLV reverse transcriptase with D200N, T306K, W313F, T330P; SEQ ID NO: 765
efficiency (% of total sequencing reads with the specified edit or indels) [2]: about as efficient as the prime editors comprising the non-truncated RT proteins

B1: 1024-CFN: intein-split PE with Cas9 residues at 1024 mutated to the Npu intein CFN sequence (protein)
chain: MKRTADGSEFESPKKKRKVIKIATRKYLGKQNVYDIGVERDHNFALKNGFIASNCFNEIGKATAKYFFYSNIMNFFKTEITLANGEIRKRPLIETNGETGEIVWDKGRDFATVRKVLSMPQVNIVKKTEVQTGGFSKESILPKRNSDKLIARKKDWDPKKYGGFDSPTVAYSVLVVAKVEKGKSKKLKSVKELLGITIMERSSFEKNPIDFLEAKGYKEVKKDLIIKLPKYSLFELENGRKRMLASAGELQKGNELALPSKYVNFLYLASHYEKLKGSPEDNEQKQLFVEQHKHYLDEIIEQISEFSKRVILADANLDKVLSAYNKHRDKPIREQAENIIHLFTLTNLGAPAAFKYFDTTIDRKRYTSTKEVLDATLIHQSITGLYETRIDLSQLGGDSGGSSGGSSGSETPGTSESATPESSGGSSGGSSTLNIEDEYRLHETSKEPDVSLGSTWLSDFPQAWAETGGMGLAVRQAPLIIPLKATSTPVSIKQYPMSQEARLGIKPHIQRLLDQGILVPCQSPWNTPLLPVKKPGTNDYRPVQDLREVNKRVEDIHPTVPNPYNLLSGLPPSHQWYTVLDLKDAFFCLRLHPTSQPLFAFEWRDPEMGISGQLTWTRLPQGFKNSPTLFNEALHRDLADFRIQHPDLILLQYVDDLLLAATSELDCQQGTRALLQTLGNLGYRASAKKAQICQKQVKYLGYLLKEGQRWLTEARKETVMGQPTPKTPRQLREFLGKAGFCRLFIPGFAEMAAPLYPLTKPGTLFNWGPDQQKAYQEIKQALLTAPALGLPDLTKPFELFVDEKQGYAKGVLTQKLGPWRRPVAYLSKKLDPVAAGWPPCLRMVAAIAVLTKDAGKLTMGQPLVILAPHAVEALVKQPPDRWLSNARMTHYQALLLDTDRVQFGPVVALNPATLLPLPEEGLQHNCLDILAEAHGTRPDLTDQPLPDADHTWYTDGSSLLQEGQRKAGAAVTTETEVIWAKALPAGTSAQRAELIALTQALKMAEGKKLNVYTDSRYAFATAHIHGEIYRRRGWLTSEGKEIKNKDEILALLKALFLPKRLSIIHCPGHQKGHSAEARGNRMADQAARKAAITETPDTSTLLIENSSPSGGSKRTADGSEFEPKKKRK
prime editing activity compared with full-length PE3 (HEK cells): recapitulates full-length PE3 activity
